Measured values reported in patent publication US10513511B2, “Aqueous suspension formulation comprising 4-(4-(4-(((3R,5R)-5-((1H-1,2,4-triazol-1-yl)methyl)-5-(2,4-difluoro-phenyl)tetrahydrofuran-3-yl)methoxy)-3-methylphenyl) or a pharmaceutically acceptable salt thereof” (PULMOCIDE LIMITED, priority 2015, dated 2019).
Converted amounts (≈) assume the structure as drawn. Where two headings read alike, the source gives them in different places.

Key:
Assay type in all cases: cell-based
[1] = Cell viability: resazurin assay; conditions: human, 1 day incubation, resazurin, n = 3
Procedure: BEAS2B cells were seeded in 384-well plates (100 μL; 3000/well/; BD Falcon, Catalogue No 353962) in RPMI-LHC8 (RPMI-1640 and LHC8 media combined in equal proportions) one day before experimentation. For cell-free control wells, RPMI-LHC8 (100 μL) was added. Test compounds (0.5 μL of a DMSO solution) were added to give a final DMSO concentration of 0.5% using an Integra VIAFLO 96 (Integra, Zizers, Switzerland). BEAS2B cells were incubated with each test compound for 1 day (37° C./5% CO2 in RPMI-LHC8). After addition of resazurin stock solution (5 μL, 0.04%) the plates were incubated for a further 4 hr (37° C./5% CO2). The fluorescence of each well at 545 nm (excitation) and 590 nm (emission) was determined using a multi-scanner (Clariostar: BMG Labtech). The percentage loss of cell viability was calculated for each well relative to vehicle (0.5% DMSO) treatment. Where appropriate, a CC50 value was calculated from the concentration-response curve generated from the concentration-response curve for each test compound.

[2] = tested on: Aspergillus fumigatus NCPF7100; test: Planktonic fungus growth: broth microdilution assay (NCPF7100); conditions: Aspergillus fumigatus, NCPF7100, read-out: MIC75 Values against Aspergillus fumigatus isolate NCPF7100
[3] = tested on: Aspergillus fumigatus TR46 (TR46/Y121F/T289A); test: Planktonic fungus growth: broth microdilution assay (TR46); conditions: Aspergillus fumigatus, read-out: MIC75 Values against Aspergillus fumigatus isolate TR46
Procedure: (§1) This assay was conducted using a modified method published by EUCAST (Rodriguez-Tudela, et al., 2008). Spores of Aspergillus fumigatus (NCPF2010, NCPF7010 [methionine 220 mutation], NCPF7099 [Glycine G54 mutation]) from Public Health England, Wiltshire; TR34/L98H mutants from St Louis Hospital, Paris, France; TR46/Y121F/T289A mutants from University of Delhi, Delhi, India) were cultured in Sabouraud dextrose agar for 3 days. A stock spore suspension was prepared from a Sabouraud dextrose agar culture by washing with PBS-tween (10 mL; phosphate buffered saline containing 0.05% Tween-20, 100 U/mL penicillin and 100 U/mL streptomycin). The spore count was assessed using a Neubauer haemocytometer and then adjusted to 10^6 spores/mL with PBS. A working suspension of spores (2×10^5 spores/mL) was prepared in filter sterilised, BSA MOPS RPMI-1640 (50 mL; RPMI-1640 containing 2 mM L-glutamine, 0.5% BSA, 2% glucose, 0.165 M MOPS, buffered to pH 7 with NaOH).
(§2) For the assay, BSA MOPS RPMI-1640 (50 μL/well) was added throughout the 384-well plate (Catalogue number 353962, BD Falcon, Oxford, UK) first. Test compounds (0.5 μL DMSO solution) were then added in quadruplicate using an Integra VIAFLO 96 (Integra, Zizers, Switzerland), and mixed well using a plate mixer. Subsequently 50 μL of the working spore suspension prepared above was added to all wells except non-spore control wells. For non-spore control wells, BSA MOPS-RPMI solution (50 μL/well) was added instead. The plate was covered with a plastic lid, and incubated (35° C. with ambient air) for 48 hr. The OD of each well at 530 nm was determined using a multi-scanner (Clariostar: BMG, Buckinghamshire, UK). The percentage inhibition for each well was calculated and the MIC50, MIC75 and MIC90 values were calculated from the concentration-response curve generated for each test compound.

[4] = tested on: Aspergillus fumigatus NCPF7099; test: Planktonic fungus growth: broth microdilution assay (NCPF7099); conditions: Aspergillus fumigatus, NCPF7099, n = 2-3, read-out: MIC75 Values against Aspergillus fumigatus isolate NCPF7099
Procedure: as §1, §2

[5] = tested on: Aspergillus fumigatus L98H (TR34/L98H); test: Planktonic fungus growth: broth microdilution assay (L98H); conditions: Aspergillus fumigatus, read-out: MIC75 Values against Aspergillus fumigatus isolate L98H
Procedure: as §1, §2

[6] = tested on: Fusarium graminerarum ATCC16106; test: Fungus panel screening, CLSI broth microdilution; conditions: for MIC50: 50% inhibition by visual inspection (CLSI); for MIC: 100% inhibition by visual inspection (CLSI), read-out: MIC100
Procedure: (§3) Fungus panel screening was conducted by Eurofins Panlabs Inc. The MIC and MIC50 values of the test articles were determined following the guidelines of the CLSI: broth microdilution methods for yeast (CLSI M27-A2), (CLSI, 2002) and for filamentous fungi (CLSI M38-A), (CLSI, 2008).

[7] = tested on: Trichophyton rubrum ATCC10218; test: Fungus panel screening, CLSI broth microdilution; conditions: for MIC50: 50% inhibition by visual inspection (CLSI); for MIC: 100% inhibition by visual inspection (CLSI), read-out: MIC100
Procedure: as §3

[8] = tested on: Aureobasidium pullulans ATCC9348; test: Fungus panel screening, CLSI broth microdilution; conditions: for MIC50: 50% inhibition by visual inspection (CLSI); for MIC: 100% inhibition by visual inspection (CLSI), read-out: MIC100
Procedure: as §3

[9] = tested on: Rhizopus oryzae ATCC11145; test: Fungus panel screening, CLSI broth microdilution; conditions: Rhizopus arrhizus; for MIC50: 50% inhibition by visual inspection (CLSI); for MIC: 100% inhibition by visual inspection (CLSI), read-out: MIC100
Procedure: as §3

[10] = tested on: Aspergillus fumigatus (NCPF2010); test: Aspergillus fumigatus infection of BEAS2B bronchial epithelial cells (galactomannan); conditions: NCPF2010, galactomannan in supernatant, 24 hr, n = 1-3, read-out: Infection of BEAS2B cells MIC50
Procedure: BEAS2B cells were seeded in 96-well plates (100 μL; 3×10^4 cells/well; Catalogue No 3596, Sigma Aldrich, Dorset, UK) in 10% FBS RPMI-1640 and were then incubated (37° C., 5% CO2) for one day before experimentation. Test compounds (0.5 μL DMSO solution) or vehicle (DMSO) were added to each well to give a final DMSO concentration of 0.5%. BEAS2B cells were incubated with test compounds for 1 hr (35° C., 5% CO2) before infection with Aspergillus fumigatus (20 uL; Public Health England) conidia suspension (0.5×10^5/mL in 10% FBS RPMI-1640). The plate was incubated for 24 hr (35° C., 5% CO2). Supernatant (50 uL) was collected and transferred to a PCR plate (Catalogue No L1402-9700, Starlab, Milton Keynes, UK), which was frozen (−20° C.) until use. After thawing, supernatant (5 μL) was diluted 1:20 by adding R7-PBS solution (95 μL; 1:4 R7 to PBS; Bio-Rad Laboratories, Redmond, Wash., USA). Galactomannan levels in these samples (50 μL) were measured using Platelia GM-EIA kits (Bio-Rad Laboratories, Redmond, Wash., USA). The percentage inhibition for each well was calculated and the IC50 value was calculated from the concentration-response curve generated for each test compound.

[11] = tested on: Aspergillus fumigatus NCPF2010; test: Planktonic fungus growth: broth microdilution assay (NCPF2010); conditions: Aspergillus fumigatus, NCPF2010, n = 2-3, read-out: MIC75 Values against Aspergillus fumigatus isolate NCPF2010
Procedure: as §1, §2

Structure (SMILES)	CC50 at 1 day ([1]; BEAS2B cells)	MIC [2]	MIC [3]	MIC [4]	MIC [5]	MIC50 [6]	MIC [6]	MIC50 [7]	MIC [7]	MIC50 [8]	MIC [8]	MIC50 [9]	MIC [9]	MIC50 [10]	MIC [11]	CC50 at 1 day ([1]; read-out: BEAS2B Cell Viability CC50)
CC[C@@H]([C@H](C)O)n1ncn(-c2ccc(N3CCN(c4ccc(OC[C@@H]5CO[C@@](Cn6cncn6)(c6ccc(F)cc6F)C5)cc4)CC3)cc2)c1=O [Posaconazole, reference compound]	> 14.3 µM	0.0597 µM (≈ 0.0418 µg/mL)	0.414 µM (≈ 0.29 µg/mL)	0.167 µM (≈ 0.117 µg/mL)	0.0983 µM (≈ 0.0689 µg/mL)	> 8 µg/mL	> 8 µg/mL	< 8 ng/mL	0.031 µg/mL (≈ 0.0442 µM)	0.25 µg/mL (≈ 0.357 µM)	1 µg/mL (≈ 1.43 µM)	0.13 µg/mL (≈ 0.186 µM)	> 8 µg/mL	0.0116 µM (≈ 0.00813 µg/mL)	0.0109 µM (≈ 0.00764 µg/mL)	
C[C@@H](c1ncncc1F)[C@](O)(Cn1cncn1)c1ccc(F)cc1F [Voriconazole]		0.543 µM (≈ 0.19 µg/mL)	> 2.86 µM	0.113 µM (≈ 0.0395 µg/mL)	2.58 µM (≈ 0.903 µg/mL)	> 8 µg/mL	> 8 µg/mL	< 8 ng/mL	0.063 µg/mL (≈ 0.18 µM)	> 8 µg/mL	> 8 µg/mL	8 µg/mL (≈ 22.9 µM)	> 8 µg/mL	0.154 µM (≈ 0.0538 µg/mL)	0.511 µM (≈ 0.179 µg/mL)	> 28.6 µM
Cc1cc(N2CCN(c3ccc(C(=O)N[C@H]4CCCC[C@@H]4O)cc3)CC2)ccc1OC[C@@H]1CO[C@@](Cn2cncn2)(c2ccc(F)cc2F)C1 [Compound (Ia), 4-(4-(4-(((3R,5R)-5-((1H-1,2,4-triazol-1-yl)methyl)-5-(2,4-difluorophenyl)tetrahydrofuran-3-yl)methoxy)-3-methylphenyl)piperazin-1-yl)-N-((1S,2S)-2-hydroxycyclohexyl) benzamide]	> 14.6 µM	0.0127 µM (≈ 0.00872 µg/mL)	0.093 µM (≈ 0.0639 µg/mL)	0.01 µM (≈ 0.00687 µg/mL)	0.0127 µM (≈ 0.00872 µg/mL)	0.13 µg/mL (≈ 0.189 µM)	0.5 µg/mL (≈ 0.728 µM)		0.031 µg/mL (≈ 0.0451 µM)	0.25 µg/mL (≈ 0.364 µM)	1 µg/mL (≈ 1.46 µM)	0.25 µg/mL (≈ 0.364 µM)	0.5 µg/mL (≈ 0.728 µM)	0.00635 µM (≈ 0.00436 µg/mL)	0.00281 µM (≈ 0.00193 µg/mL)	
